US20240124465A1, “MOLECULES AND METHODS RELATED TO TREATMENT OF DISORDERS ASSOCIATED WITH JAK-2 SIGNALING DYSFUNCTION” (ST. JUDE CHILDREN'S RESEARCH HOSPITAL, priority 2020, published 2024)

Tests used:
Format in all cases: cell-based
[1] = test system: MHH-CALL-4 cells; assay: Cytotoxicity assay (resazurin, 72 hours); set-up: AUC: unit not given beside the values; conditions: for EC50: MHHCALL4, resazurin; for AUC: area under the dose-response curve
Procedure: Cytotoxicity assay: MHH-CALL-4 cells were maintained in RPMI1640 medium (Invitrogen) supplemented with 10% FBS (Hyclone), Penicillin/Streptomycin (100 units/mL) and Glutamine (100 μM). 2×10^5 cells were seeded in 100 μl medium/well in 96 well assay plates (Corning 3603). Assays were performed in triplicate; compounds to be screened were added to assay plates from DMSO stock solutions by pin transfer using 50SS pins (V&P Scientific). The assay plates incubated at 37° C. in 5% CO2 for 72 hours. Cells were then incubated for four hours with resazurin (Sigma) solution and read on a Synergy HT plate reader (Biotek, Winooski, VT). High-throughput assay data was analyzed using our in-house Robust Interpretation of Screening Experiments (RISE) application written in Pipeline Pilot (Biovia, v. 17.2.0) and the R program (R Core Team, 2013). All the AUC (area under the dose-response curve) per compound calculated from its dose response curve by RISE protocol. Selected data were plotted and analyzed by GraphPad Prism software v7 using non-linear regression curve fitting.

[2] = molecular target: T1, JAK1 (Homo sapiens, UniProt P23458); assay: Western blot assay, JAK1 protein degradation; conditions: MHH-CALL-4 cells, vehicle control = 100%
T1 construct: endogenous in cells; host or cells: MHH-CALL-4
Procedure: (§1) Western blot assay: MHH-CALL-4 Cells were washed twice with ice-cold PBS and lysed in RIPA lysis buffer (Sigma) freshly supplemented with Halt™ Protease Inhibitor Cocktail (ThermoFisher) for 15 minutes on ice. The cell pellet was removed by centrifugation at 13,000 g at 4° C. for 15 minutes. Protein concentration was measured by BCA assay (Thermo Fisher Scientific). Proteins were denatured in NuPAGE LDS 4× sample buffer supplemented with reducing agents (Invitrogen). Typically, 10-20 μg of total protein was loaded per lane on a 4%-12% NUPAGE Bis-Tris gradient gel (Invitrogen) and analyzed by standard immunoblotting and imaged using Li—COR Odyssey CLx (LI-COR Biotechnology, Lincoln, NE). To access the protein degradation, the signal of target protein was normalized by the signal of ACBT and the signal of vehicle control was set as 100%. Primary antibodies used were: JAK1 (Cell Signaling #3332S), JAK2 (#3230S), JAK3 (#8827S), TYK2 (#9312S), GSPT1 (#14980S), CRBN (#71810S), IKZF1 (Santa Cruz Biotechnology, SC-398265) and ACBT (Santa Cruz Biotechnology, SC-47778).

[3] = test system: JAK2; assay: Western blot assay, JAK2 protein degradation; conditions: MHH-CALL-4 cells, vehicle control = 100%
Procedure: as §1

[4] = molecular target: T2, JAK3 (Homo sapiens, UniProt P52333); assay: Western blot assay, JAK3 protein degradation; conditions: MHHCALL4; 100 nM, 24 h; MHH-CALL-4 cells; vehicle control = 100%; read-out: Target Protein Degradation (% remaining at 100 nM, 24 h) JAK3
T2 construct: endogenous in cells; host or cells: MHH-CALL-4
T2 sequence (P52333 1-1124): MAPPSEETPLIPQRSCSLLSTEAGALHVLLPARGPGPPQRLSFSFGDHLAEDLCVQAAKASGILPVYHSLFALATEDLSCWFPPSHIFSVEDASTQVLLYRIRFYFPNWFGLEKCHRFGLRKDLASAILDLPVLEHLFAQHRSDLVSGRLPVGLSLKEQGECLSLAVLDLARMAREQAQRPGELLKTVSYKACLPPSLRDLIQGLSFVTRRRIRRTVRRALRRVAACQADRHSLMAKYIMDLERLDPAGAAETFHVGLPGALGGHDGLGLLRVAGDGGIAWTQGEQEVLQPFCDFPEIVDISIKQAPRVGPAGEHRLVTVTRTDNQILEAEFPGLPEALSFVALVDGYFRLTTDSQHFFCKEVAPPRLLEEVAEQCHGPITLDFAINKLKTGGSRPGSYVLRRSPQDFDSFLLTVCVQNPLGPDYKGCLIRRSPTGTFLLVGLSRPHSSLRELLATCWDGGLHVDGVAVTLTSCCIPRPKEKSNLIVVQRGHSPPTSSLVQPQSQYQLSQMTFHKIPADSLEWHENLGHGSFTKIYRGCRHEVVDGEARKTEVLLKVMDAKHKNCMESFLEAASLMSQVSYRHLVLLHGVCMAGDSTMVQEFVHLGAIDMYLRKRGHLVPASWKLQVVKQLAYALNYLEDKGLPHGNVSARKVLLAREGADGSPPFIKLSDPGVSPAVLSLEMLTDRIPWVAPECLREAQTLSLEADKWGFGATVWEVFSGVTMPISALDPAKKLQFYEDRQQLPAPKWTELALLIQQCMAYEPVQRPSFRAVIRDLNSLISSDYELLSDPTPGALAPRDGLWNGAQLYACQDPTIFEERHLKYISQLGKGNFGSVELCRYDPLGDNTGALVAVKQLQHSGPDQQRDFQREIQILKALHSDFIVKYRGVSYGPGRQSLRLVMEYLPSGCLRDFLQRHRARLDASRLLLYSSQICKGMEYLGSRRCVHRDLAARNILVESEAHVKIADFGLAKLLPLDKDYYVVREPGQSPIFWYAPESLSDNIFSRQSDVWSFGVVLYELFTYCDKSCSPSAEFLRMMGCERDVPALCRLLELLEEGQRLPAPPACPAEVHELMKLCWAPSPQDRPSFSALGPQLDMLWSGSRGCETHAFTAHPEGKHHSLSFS
Procedure: as §1

[5] = molecular target: T3, GSPT1 (Homo sapiens, UniProt P15170); assay: Western blot assay, GSPT1 neosubstrate degradation; conditions: MHHCALL4; 100 nM, 24 h; MHH-CALL-4 cells; vehicle control = 100%
T3 construct: endogenous in cells; host or cells: MHH-CALL-4
Procedure: as §1

T3 sequence (P15170 whole entry): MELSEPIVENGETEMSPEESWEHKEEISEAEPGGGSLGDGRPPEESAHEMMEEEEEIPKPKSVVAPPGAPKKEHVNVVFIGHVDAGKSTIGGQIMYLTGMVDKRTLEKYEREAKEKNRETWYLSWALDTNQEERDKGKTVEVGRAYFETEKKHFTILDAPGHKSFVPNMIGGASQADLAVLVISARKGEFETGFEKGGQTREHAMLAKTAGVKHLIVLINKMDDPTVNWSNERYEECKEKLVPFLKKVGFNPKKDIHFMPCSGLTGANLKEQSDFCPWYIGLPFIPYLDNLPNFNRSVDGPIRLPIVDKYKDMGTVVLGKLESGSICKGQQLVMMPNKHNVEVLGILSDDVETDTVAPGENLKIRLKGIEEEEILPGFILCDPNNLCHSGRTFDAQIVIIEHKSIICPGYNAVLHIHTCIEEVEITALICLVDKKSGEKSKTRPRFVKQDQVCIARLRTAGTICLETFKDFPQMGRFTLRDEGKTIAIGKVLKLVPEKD
T1 sequence (P23458 whole entry): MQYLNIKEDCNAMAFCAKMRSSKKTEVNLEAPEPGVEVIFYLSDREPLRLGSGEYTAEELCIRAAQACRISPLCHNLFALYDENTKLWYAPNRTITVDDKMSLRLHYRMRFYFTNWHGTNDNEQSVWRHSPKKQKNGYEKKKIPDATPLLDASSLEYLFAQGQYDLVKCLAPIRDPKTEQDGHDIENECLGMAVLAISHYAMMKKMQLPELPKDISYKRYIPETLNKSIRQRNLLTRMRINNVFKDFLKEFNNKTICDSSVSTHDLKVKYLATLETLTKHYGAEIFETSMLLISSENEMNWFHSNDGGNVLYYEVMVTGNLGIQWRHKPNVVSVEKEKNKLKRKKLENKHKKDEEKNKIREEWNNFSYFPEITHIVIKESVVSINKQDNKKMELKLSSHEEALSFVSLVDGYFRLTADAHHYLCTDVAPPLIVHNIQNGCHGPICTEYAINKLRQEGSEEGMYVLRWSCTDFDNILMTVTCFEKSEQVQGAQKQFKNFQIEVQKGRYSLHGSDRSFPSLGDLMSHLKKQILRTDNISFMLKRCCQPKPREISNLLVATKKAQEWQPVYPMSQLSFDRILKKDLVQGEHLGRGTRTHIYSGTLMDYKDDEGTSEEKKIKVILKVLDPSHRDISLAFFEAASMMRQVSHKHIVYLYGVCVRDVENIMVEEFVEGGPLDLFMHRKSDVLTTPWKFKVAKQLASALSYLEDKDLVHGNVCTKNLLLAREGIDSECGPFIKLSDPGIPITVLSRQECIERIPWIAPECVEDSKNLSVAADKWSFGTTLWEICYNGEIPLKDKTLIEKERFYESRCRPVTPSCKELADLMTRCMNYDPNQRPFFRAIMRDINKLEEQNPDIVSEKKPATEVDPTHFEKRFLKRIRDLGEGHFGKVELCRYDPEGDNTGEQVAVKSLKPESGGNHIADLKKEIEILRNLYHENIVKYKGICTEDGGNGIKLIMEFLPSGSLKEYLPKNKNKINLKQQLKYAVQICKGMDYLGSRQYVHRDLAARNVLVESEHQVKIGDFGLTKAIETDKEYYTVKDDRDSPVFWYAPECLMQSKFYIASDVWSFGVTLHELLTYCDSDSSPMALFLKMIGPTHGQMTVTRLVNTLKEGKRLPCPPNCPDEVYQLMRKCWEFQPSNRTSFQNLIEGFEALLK

Structure (SMILES) | Target Protein Degradation (% remaining at 100 nM, 24 h) JAK1 [2] | remaining activity at 0.1 µM [4] | remaining activity at 0.1 µM [5] | EC50 [1] | AUC [1] | Target Protein Degradation (% remaining at 100 nM, 24 h) JAK2 [3]
CCS(=O)(=O)N1CC(CC#N)(n2cc(-c3nc(Nc4ccc(C(=O)NCC5CCN(c6ccc7c(c6)C(=O)N(C6CCC(=O)NC6=O)C7=O)CC5)cc4)nc4[nH]ccc34)cn2)C1 (stereo not shown) [Compound 31] | 58 % remaining | 54% | 61% | 2.1 nM | 260 | 18 % remaining
CCS(=O)(=O)N1CC(CC#N)(n2cc(-c3nc(Nc4ccc(C(=O)NCCCCNc5cccc(C6CCC(=O)NC6=O)c5)cc4)nc4[nH]ccc34)cn2)C1 (stereo not shown) [Compound 4] | 17 % remaining | 44% | 124% | 2.1 nM | 120 | 30 % remaining
CCS(=O)(=O)N1CC(CC#N)(n2cc(-c3nc(Nc4ccc(C(=O)NCCCCCCNc5cccc(C6CCC(=O)NC6=O)c5)cc4)nc4[nH]ccc34)cn2)C1 (stereo not shown) [Compound 3] | 94 % remaining | 79% | 84% | 1.7 nM | 248 | 56 % remaining
CCS(=O)(=O)N1CC(CC#N)(n2cc(-c3nc(Nc4ccc(C(=O)NCCCCCNc5cccc(C6CCC(=O)NC6=O)c5)cc4)nc4[nH]ccc34)cn2)C1 (stereo not shown) [Compound 6] | 44 % remaining | 54% | – | 5.9 nM | 136 | 37 % remaining
N#CC[C@H](C1CCCC1)n1cc(-c2nc(Nc3ccc(C(=O)NCCCN4CCN(c5ccc(C6CCC(=O)NC6=O)cc5)CC4)cc3)nc3[nH]ccc23)cn1 (stereo partly drawn) [Compound 38, 4-((4-(1-((R)-2-cyano-1-cyclopentylethyl)-1H-pyrazol-4-yl)-7H-pyrrolo[2,3-d]pyrimidin-2-yl)amino)-N-(3-(4-(4-(2,6-dioxopiperidin-3-yl)phenyl)piperazin-1-yl)propyl)benzamide] | – | 41% | 99% | 2.6 nM | 122 | 48 % remaining

More lines, main results first:

Target Protein Degradation (% remaining at 100 nM, 24 h) JAK1 [2] | remaining activity at 0.1 µM [4] | remaining activity at 0.1 µM [5] | Structure (SMILES) | EC50 [1] | AUC [1] | Target Protein Degradation (% remaining at 100 nM, 24 h) JAK2 [3]
123 % remaining | 79% | 37% | CCCn1cc(-c2nc(Nc3ccc(C(=O)NCCCCOc4ccc(C5CCC(=O)NC5=O)cc4)cc3)nc3[nH]ccc23)cn1 (stereo not shown) [Compound 43, N-(4-(4-(2,6-dioxopiperidin-3-yl)phenoxy)butyl)-4-((4-(1-propyl-1H-pyrazol-4-yl)-7H-pyrrolo[2,3-d]pyrimidin-2-yl)amino)benzamide] | – | – | 76 % remaining
104 % remaining | 74% | 81% | CCCn1cc(-c2nc(Nc3ccc(C(=O)NCCCN4CCN(c5ccc(C6CCC(=O)NC6=O)cc5)CC4)cc3)nc3[nH]ccc23)cn1 (stereo not shown) [Compound 44, N-(3-(4-(4-(2,6-dioxopiperidin-3-yl)phenyl)piperazin-1-yl)propyl)-4-((4-(1-propyl-JH-pyrazol-4-yl)-7H-pyrrolo[2,3-d]pyrimidin-2-yl)amino)benzamide] | – | – | 64 % remaining
107 % remaining | 29% | 101% | CCS(=O)(=O)N1CC(CC#N)(n2cc(-c3nc(Nc4ccc(C(=O)NCC5CCN(c6ccc(C7CCC(=O)NC7=O)cc6)CC5)cc4)nc4[nH]ccc34)cn2)C1 (stereo not shown) [Compound 45, 4-((4-(1-(3-(cyanomethyl)-1-(ethylsulfonyl)azetidin-3-yl)-1H-pyrazol-4-yl)-7H-pyrrolo[2,3-d]pyrimidin-2-yl)amino)-N-((1-(4-(2,6-dioxopiperidin-3-yl)phenyl)piperidin-4-yl)methyl)benzamide] | – | – | 21 % remaining
